Measured values as given in patent publication US12398154B2, “Azaquinazoline pan-KRas inhibitors” (Mirati Therapeutics, Inc., priority 2020, dated 2025).

Columns and labels:
KRas G13D = biological target: T1, KRas G13D (Homo sapiens, UniProt P01116, G13D); assay: KRas binding assay (TR-FRET displacement);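 further: One-hour room temperature incubation before TR-FRET reading, IC50 from a four-parameter curve fit to percent-of-control data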
T1 construct: Biotinylated KRas (corresponding to amino acids 1-169, produced at Accelegan Inc.); biotin (biotinylated); purchased Accelegan Inc
Protocol: (§1) The ability of a compound to bind to KRas was measured using a TR-FRET displacement assay. […] After a 60-minute incubation at room temperature, the reaction was measured using a BMG LABTECH CLARIO star Plus via TR-FRET. […] The POC values were fit to a 4-parameter IC50 equation and the IC50 value reported.

KRas G12V = KRas G12V (Homo sapiens, UniProt P01116, G12V); assay: biochemical;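 further: KRas binding measured by TR-FRET displacement at room temperature, IC50 fitted from percent of control values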
Protocol: as §1

KRas Q61H = biological target: T2, KRas Q61H (Homo sapiens, UniProt P01116, Q61H); assay: KRas binding assay (TR-FRET displacement);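 further: TR-FRET signal read after one hour at room temperature, IC50 derived by four-parameter fitting of percent-of-control values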
T2 construct: Biotinylated KRas (corresponding to amino acids 1-169, produced at Accelegan Inc.); biotin (biotinylated); purchased Accelegan Inc
Protocol: as §1

KRas G12S = KRas G12S (Homo sapiens, UniProt P01116, G12S); assay: biochemical;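 further: TR-FRET displacement binding to KRas, read after one hour incubation at room temperature, IC50 from four-parameter fit of percent of control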
Protocol: as §1

KRas G12D = KRas G12D (Homo sapiens, UniProt P01116, G12D); assay: biochemical;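 further: TR-FRET displacement binding assay on KRas, read after a one-hour incubation at room temperature, IC50 fitted from percent-of-control values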
Protocol: as §1

KRas G12A = KRas G12A (Homo sapiens, UniProt P01116, G12A); assay: biochemical;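 further: binding to KRas measured by TR-FRET displacement after one hour at room temperature, IC50 from a four-parameter fit of percent-of-control values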
Protocol: as §1

KRas G12C = KRas G12C (Homo sapiens, UniProt P01116, G12C); assay: biochemical;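 further: binding to KRas assessed by TR-FRET displacement after one hour incubation at room temperature, potency fitted from percent-of-control values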
Protocol: as §1

KRas WT = KRas WT (Homo sapiens, UniProt P01116); assay: biochemical;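 further: binding to KRas read as TR-FRET displacement after a one-hour room-temperature incubation, IC50 derived from percent-of-control values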
Protocol: as §1

KRas G12R = KRas G12R (Homo sapiens, UniProt P01116, G12R); assay: biochemical;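 further: TR-FRET displacement assay of compound binding to KRas, read after one hour at room temperature, potency from a four-parameter fit of percent-of-control values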
Sequence of KRas G12R (P01116 1-169 isoform P01116-2 G12R): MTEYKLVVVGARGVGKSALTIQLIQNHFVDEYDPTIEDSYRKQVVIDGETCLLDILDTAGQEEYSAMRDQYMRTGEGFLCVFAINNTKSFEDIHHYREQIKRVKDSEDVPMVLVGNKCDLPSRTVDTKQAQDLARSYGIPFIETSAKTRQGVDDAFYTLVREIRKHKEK
Protocol: as §1

Sequence of KRas G12S (P01116 1-169 isoform P01116-2 G12S): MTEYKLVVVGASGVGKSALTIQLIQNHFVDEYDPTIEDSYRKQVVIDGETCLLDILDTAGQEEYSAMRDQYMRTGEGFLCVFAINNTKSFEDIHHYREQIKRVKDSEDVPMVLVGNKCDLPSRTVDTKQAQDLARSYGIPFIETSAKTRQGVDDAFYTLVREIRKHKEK
T1 sequence (P01116 1-169 isoform P01116-2 G13D): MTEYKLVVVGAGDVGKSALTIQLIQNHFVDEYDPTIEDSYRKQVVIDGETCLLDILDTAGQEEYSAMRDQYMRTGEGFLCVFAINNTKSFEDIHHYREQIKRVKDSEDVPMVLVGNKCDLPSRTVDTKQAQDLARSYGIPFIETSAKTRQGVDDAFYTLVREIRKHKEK
Sequence of KRas G12A (P01116 1-169 isoform P01116-2 G12A): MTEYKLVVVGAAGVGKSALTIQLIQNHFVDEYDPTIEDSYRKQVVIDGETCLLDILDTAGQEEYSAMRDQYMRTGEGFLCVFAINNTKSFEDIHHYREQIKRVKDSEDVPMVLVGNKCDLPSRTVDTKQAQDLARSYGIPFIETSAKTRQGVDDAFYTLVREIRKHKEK
Sequence of KRas WT (P01116 1-169 isoform P01116-2): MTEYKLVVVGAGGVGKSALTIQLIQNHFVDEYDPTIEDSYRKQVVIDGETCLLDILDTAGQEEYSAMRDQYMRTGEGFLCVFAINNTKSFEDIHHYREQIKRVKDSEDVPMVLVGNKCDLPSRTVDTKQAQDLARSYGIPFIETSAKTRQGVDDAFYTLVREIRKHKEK
Sequence of KRas G12V (P01116 1-169 isoform P01116-2 G12V): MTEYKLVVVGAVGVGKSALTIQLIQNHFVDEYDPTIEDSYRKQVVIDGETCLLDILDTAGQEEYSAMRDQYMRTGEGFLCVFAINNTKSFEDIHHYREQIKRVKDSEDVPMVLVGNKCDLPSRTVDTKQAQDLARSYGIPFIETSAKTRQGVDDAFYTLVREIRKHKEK
Sequence of KRas G12C (P01116 1-169 isoform P01116-2 G12C): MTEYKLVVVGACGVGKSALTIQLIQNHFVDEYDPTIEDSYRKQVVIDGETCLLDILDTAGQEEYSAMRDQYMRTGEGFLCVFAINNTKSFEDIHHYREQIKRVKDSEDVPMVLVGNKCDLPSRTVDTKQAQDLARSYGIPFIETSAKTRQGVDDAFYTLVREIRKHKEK
T2 sequence (P01116 1-169 isoform P01116-2 Q61H): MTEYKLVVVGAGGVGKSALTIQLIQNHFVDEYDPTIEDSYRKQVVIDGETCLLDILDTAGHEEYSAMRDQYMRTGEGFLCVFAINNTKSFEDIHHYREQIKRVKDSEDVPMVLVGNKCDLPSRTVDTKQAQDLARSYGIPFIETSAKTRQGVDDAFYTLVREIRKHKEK
Sequence of KRas G12D (P01116 1-169 isoform P01116-2 G12D): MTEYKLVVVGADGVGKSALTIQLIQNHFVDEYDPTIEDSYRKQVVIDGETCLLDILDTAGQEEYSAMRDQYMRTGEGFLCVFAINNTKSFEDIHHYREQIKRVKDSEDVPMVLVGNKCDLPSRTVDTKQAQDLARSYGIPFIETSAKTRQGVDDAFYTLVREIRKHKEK

Row | SMILES | IC50 (KRas G13D) | IC50 (KRas G12V) | IC50 (KRas Q61H) | IC50 (KRas G12S) | IC50 (KRas G12D) | IC50 (KRas G12A) | IC50 (KRas G12C) | IC50 (KRas WT) | IC50 (KRas G12R)
1 | O=c1ccc(CNc2nc(OCC34CCCN3CCC4)nc3c(F)c(-c4cccc5cccc(F)c45)ncc23)c[nH]1 [Example 96, 5-(((8-fluoro-7-(8-fluoronaphthalen-1-yl)-2-((hexahydro-1H-pyrrolizin-7a-yl)methoxy)pyrido[4,3-d]pyrimidin-4-yl)amino)methyl)pyridin-2 (1H)-one] | 10700 nM | 1.94 µM | 22100 nM | 3.23 µM | 62.9 µM | 2.5 µM | 1.95 µM | 5.71 µM | 3.19 µM
2 | O=C1CC2(CCCN(c3nc(OCC45CCCN4CCC5)nc4c(F)c(-c5cccc6cccc(F)c56)ncc34)C2)N1 (stereo not drawn) [Example 97, 6-(8-fluoro-7-(8-fluoronaphthalen-1-yl)-2-((hexahydro-1H-pyrrolizin-7a-yl)methoxy)pyrido[4,3-d]pyrimidin-4-yl)-1,6-diazaspiro[3.5]nonan-2-one] | 297 nM | 0.189 µM | 412 nM | 0.272 µM | 0.175 µM | 0.227 µM | 0.192 µM | 0.333 µM | 0.348 µM
3 | O=C1NCC12CCCN(c1nc(OCC34CCCN3CCC4)nc3c(F)c(-c4cccc5cccc(F)c45)ncc13)C2 (stereo not drawn) [Example 98, 6-(8-fluoro-7-(8-fluoronaphthalen-1-yl)-2-((tetrahydro-1H-pyrrolizin-7a(5H)-yl)methoxy)pyrido[4,3-d]pyrimidin-4-yl)-2,6-diazaspiro[3.5]nonan-1-one] | 3210 nM | 3.01 µM | 4770 nM | 4.01 µM | 1.89 µM | 2.91 µM | 2.84 µM | 3.36 µM | 6.42 µM
4 | Cn1ncc2ccc(Nc3nc(OCC45CCCN4CCC5)nc4c(F)c(-c5cccc6cccc(F)c56)ncc34)cc21 [Example 99, 8-fluoro-7-(8-fluoronaphthalen-1-yl)-2-((hexahydro-1H-pyrrolizin-7a-yl)methoxy)-N-(1-methyl-1H-indazol-6-yl)pyrido[4,3-d]pyrimidin-4-amine] | 59800 nM | 3.97 µM | 98500 nM | 21.7 µM | ≥ 100 µM | 13.6 µM | 8.33 µM | 32.4 µM | 16.7 µM
5 | Fc1c(-c2cccc3cccc(F)c23)ncc2c(Nc3ccc4[nH]ncc4c3)nc(OCC34CCCN3CCC4)nc12 [Example 100, 8-fluoro-7-(8-fluoronaphthalen-1-yl)-2-((hexahydro-1H-pyrrolizin-7a-yl)methoxy)-N-(1H-indazol-5-yl)pyrido[4,3-d]pyrimidin-4-amine] | 49300 nM | 17.3 µM | 42000 nM | 28.8 µM | 11.8 µM | 50.4 µM | 39.9 µM | 40.3 µM | ≥ 100 µM
6 | Fc1c(-c2cccc3cccc(Cl)c23)ncc2c(N3CC(n4ccnc4)C3)nc(OCC34CCCN3CCC4)nc12 [Example 101, 4-(3-(1H-imidazol-1-yl)azetidin-1-yl)-7-(8-chloronaphthalen-1-yl)-8-fluoro-2-((tetrahydro-1H-pyrrolizin-7a(5H)-yl)methoxy)pyrido[4,3-d]pyrimidine] | 4230 nM | 0.966 µM | 2580 nM | 1.34 µM | 15.3 µM | 0.994 µM | 0.679 µM | 3.03 µM | 0.615 µM
7 | O=C1CC(CNc2nc(OCC34CCCN3CCC4)nc3c(F)c(-c4cccc5cccc(Cl)c45)ncc23)CN1 (stereo not drawn) [Example 102, 4-(((7-(8-chloronaphthalen-1-yl)-8-fluoro-2-((tetrahydro-1H-pyrrolizin-7a(5H)-yl)methoxy)pyrido[4,3-d]pyrimidin-4-yl)amino)methyl)pyrrolidin-2-one] | 769 nM | 0.365 µM | 1180 nM | 0.191 µM | 2.29 µM | 0.634 µM | 0.399 µM | 1.17 µM | 0.479 µM
